Earlier results as cited in publication PMC4183665 (2014).
“Also recorded” adds a separate entry of the source.

Experiments:
[1] = tested on: dipeptidyl peptidase-4 (DPP-4)

cleaved bond [1]: cleaves after Ala8
Substance: H-HAEGTFTSDVSSYLEGQAAKEFIAWLVKGRG-NH2
cleaved bond (neprilysin (NEP 24.11)): cleaves after Ser18; also recorded: cleaves after Tyr19; also recorded: cleaves after Glu27; also recorded: cleaves after Phe28
